Consider eleven substances from patent US8178506B2, “Oligomeric compounds and compositions for use in modulation of small non-coding RNAs” (Regulus Therapeutics Inc., priority 2003, dated 2012).

“And” between values parts separate entries of the source, which are not always exact repeats. Equal values may be shown once. In the oligonucleotide strings, read from the 5' end, every base follows the letter of its sugar. An asterisk marks phosphorothioate; unmarked linkages are phosphodiester. Other units and linkages are bracketed, terminal groups are in braces. A string of capitals states the bases alone. e = 2'-O-(2-methoxyethyl) (MOE); [5mC] = 5-methylcytosine; d = 2'-deoxy (DNA)

The subject of this data set is HeLa cells. In words: Cell cycle assay in HeLa cells. As to conditions: for % cells aneuploid / % cells in cell cycle phase G1 / % cells in cell cycle phase G2/M / % cells in cell cycle phase S / % cells in cell cycle phase subG1 / % cells in cell cycle phase: G1 / % cells in cell cycle phase: G2/M / % cells in cell cycle phase: S / % cells in cell cycle phase: aneuploid / % cells in cell cycle phase: subG1 / % cells in cell cycle phase aneuploid: HeLa cells. The class given is cell-based, human.

[1] abbreviates: 150 nM oligomeric compound, 24 hours, relative to untreated control (UTC = 100).
The mark [2] stands for this setting: 150 nM oligomeric compound, 48 hours after treatment, relative to untreated control (UTC=100).
Where [3] appears, read: 150 nM, 48 hours, relative to untreated control.
[4] abbreviates: 25 nM, 48 hours, percentage of cells in phase, average of replicates.
Setting [5] is: 50 nM, 48 hours, percentage of cells in phase, average of replicates.
[6] abbreviates: 100 nM, 48 hours, percentage of cells in phase, average of replicates.
[7] abbreviates: 150 nM, 48 hours, percentage of cells in phase, average of replicates.

On to “327933 (antisense eA*eA*eG*eG*eG*eA*eT*eT*e[5mC]*e[5mC]*eT*eG*eG*eG*eA*eA*eA*eA*e[5mC]*eT*eG*eG*eA*e[5mC]) [compound 327933]”, for which, under setting [1], the “% cells aneuploid” value was 92% and 47%; the “% cells in cell cycle phase G1” value was 102% and 90%; the “% cells in cell cycle phase G2/M” value was 131% and 140%; the “% cells in cell cycle phase S” value is 83% and 91%. Besides, the “% cells in cell cycle phase subG1” value under setting [1] was 192% and 190%. Further, under setting [2], the “% cells in cell cycle phase: G1” value is 76% and 80%; the “% cells in cell cycle phase: G2/M” value was 138% and 123%; the “% cells in cell cycle phase: S” value is 135% and 133%; the “% cells in cell cycle phase: aneuploid” value was 86% and 75%.

Take “327911 (antisense eG*e[5mC]*eT*eA*e[5mC]*e[5mC]*eT*eG*e[5mC]*eA*e[5mC]*eT*eG*eT*eA*eA*eG*e[5mC]*eA*e[5mC]*eT*eT*eT*eT) [compound 327911]”: under setting [1], the “% cells aneuploid” value amounted to 104%, the “% cells in cell cycle phase G1” value is on record as 130%, the “% cells in cell cycle phase G2/M” value is reported as 122% and the “% cells in cell cycle phase S” value was 62%. Moreover, the “% cells in cell cycle phase subG1” value under setting [1] is recorded as 158%. Further, under setting [2], the “% cells in cell cycle phase: G1” value is given as 99%, the “% cells in cell cycle phase: G2/M” value stood at 109%, the “% cells in cell cycle phase: S” value is 96% and the “% cells in cell cycle phase: aneuploid” value was determined as 101%. For the same substance, the “% cells in cell cycle phase: subG1” value under setting [2] came out at 65%.

Take “328136 (eA*eA*e[5mC]*eT*eA*e[5mC]*eT*eT*e[5mC]*e[5mC]*eA*eG*eA*eG*e[5mC]*eA*eG*eG*eT*eG*eA; anti-miR) [compound 328136]”: under setting [1], the “% cells aneuploid” value came out at 51%, the “% cells in cell cycle phase G1” value is given as 125%, the “% cells in cell cycle phase G2/M” value is given as 88% and the “% cells in cell cycle phase S” value stood at 81%. Also, the “% cells in cell cycle phase subG1” value under setting [1] came to 330%. For the same substance, under setting [2], the “% cells in cell cycle phase: G1” value came out at 83%, the “% cells in cell cycle phase: G2/M” value came to 113%, the “% cells in cell cycle phase: S” value is listed as 133% and the “% cells in cell cycle phase: aneuploid” value is on record as 85%. In addition, under setting [2], the “% cells in cell cycle phase: subG1” value was 140%.

As to “ACTTTCGGTTATCTAGCTTTA [ISIS 327892] (chemistry not given here) [uniform 2′-MOE PS; targets mir-131-2/mir-9]”, the “phase of the cell cycle in which cells arrest or delay” value (HeLa, 150 nM, 48 hours) is “G2/M- and S-phases”.

For “327878 (antisense e[5mC]*eT*eA*eG*eT*eG*eG*eT*e[5mC]*e[5mC]*eT*eA*eA*eA*e[5mC]*eA*eT*eT*eT*e[5mC]*eA*e[5mC]) [compound 327878]”, under setting [1], the “% cells aneuploid” value worked out at 73%, the “% cells in cell cycle phase G1” value is recorded as 96%, the “% cells in cell cycle phase G2/M” value is given as 122% and the “% cells in cell cycle phase S” value is reported as 94%. Besides, the “% cells in cell cycle phase subG1” value under setting [1] stood at 124%. Under setting [2], the “% cells in cell cycle phase: G1” value was determined as 89%, the “% cells in cell cycle phase: G2/M” value stood at 114%, the “% cells in cell cycle phase: S” value was 119% and the “% cells in cell cycle phase: aneuploid” value is given as 92%. Besides, the “% cells in cell cycle phase: subG1” value under setting [2] stood at 50%.

On to “327906 (antisense eT*e[5mC]*eA*eT*eA*eG*e[5mC]*e[5mC]*e[5mC]*eT*eG*eT*eA*e[5mC]*eA*eA*eT*eG*e[5mC]*eT*eG*e[5mC]*eT) [compound 327906]”, for which, under setting [1], the “% cells aneuploid” value is recorded as 65%, the “% cells in cell cycle phase G1” value amounted to 153%, the “% cells in cell cycle phase G2/M” value worked out at 107% and the “% cells in cell cycle phase S” value is 47%. The “% cells in cell cycle phase subG1” value under setting [1] is reported as 228%. In addition, under setting [2], the “% cells in cell cycle phase: G1” value is 100%, the “% cells in cell cycle phase: G2/M” value was found to be 103%, the “% cells in cell cycle phase: S” value is 98% and the “% cells in cell cycle phase: aneuploid” value stood at 83%. Also, the “% cells in cell cycle phase: subG1” value under setting [2] is 57%.

For the substance “340350 (antisense TGCTCAATAAATACCCGTTGAA; all 2'-MOE, all phosphorothioate, methylation of C not given here) [compound 340350]”, under setting [1], the “% cells aneuploid” value was determined as 94%, the “% cells in cell cycle phase G1” value is 183%, the “% cells in cell cycle phase G2/M” value was determined as 104% and the “% cells in cell cycle phase S” value was 54%. Also, under setting [1], the “% cells in cell cycle phase subG1” value is given as 218%. Further, under setting [2], the “% cells in cell cycle phase: G1” value was found to be 76%, the “% cells in cell cycle phase: G2/M” value was found to be 134%, the “% cells in cell cycle phase: S” value was determined as 126% and the “% cells in cell cycle phase: aneuploid” value worked out at 125%. Further, under setting [2], the “% cells in cell cycle phase: subG1” value was 1144%. For the same substance, under setting [3], the “% cells in cell cycle phase G1” value is 101%, the “% cells in cell cycle phase G2/M” value is 112%, the “% cells in cell cycle phase S” value turned out to be 94% and the “% cells in cell cycle phase aneuploid” value was found to be 177%. For the same substance, under setting [3], the “% cells in cell cycle phase subG1” value was determined as 132%.

With “328362 (eT*eG*eT*eG*eT*dT*dT*dT*d[5mC]*dT*dG*dA*d[5mC]*dT*d[5mC]*eA*eG*eT*e[5mC]*eA) [compound 328362]”, under setting [1], the “% cells aneuploid” value was found to be 66%, the “% cells in cell cycle phase G1” value was 101%, the “% cells in cell cycle phase G2/M” value was 126% and the “% cells in cell cycle phase S” value is recorded as 87%. Moreover, under setting [1], the “% cells in cell cycle phase subG1” value is reported as 114%. Also, under setting [2], the “% cells in cell cycle phase: G1” value stood at 96%, the “% cells in cell cycle phase: G2/M” value is reported as 108%, the “% cells in cell cycle phase: S” value was 104% and the “% cells in cell cycle phase: aneuploid” value is 97%. Moreover, under setting [2], the “% cells in cell cycle phase: subG1” value is on record as 87%.

Take “327902 (antisense eG*eG*e[5mC]*eT*eG*eT*e[5mC]*eA*eA*eT*eT*e[5mC]*eA*eT*eA*eG*eG*eT*e[5mC]*eA*eG) [compound 327902]”: under “25 nM, 48 hours”, the “% cells in cell cycle phase: G2/M” value was found to be 19%. For the same substance, under setting [4], the “% cells in cell cycle phase: G1” value was 57%, the “% cells in cell cycle phase: S” value stood at 23%, the “% cells in cell cycle phase: aneuploid” value worked out at 13% and the “% cells in cell cycle phase: subG1” value stood at 1.6%. Moreover, the “% cells in cell cycle phase: G2/M” value (50 nM, 48 hours) was 20%. Under setting [5], the “% cells in cell cycle phase: G1” value is recorded as 51%, the “% cells in cell cycle phase: S” value is given as 30%, the “% cells in cell cycle phase: aneuploid” value was determined as 14% and the “% cells in cell cycle phase: subG1” value is on record as 2.4%. Moreover, for the setting “100 nM, 48 hours”, the “% cells in cell cycle phase: G2/M” value was determined as 27%. Under setting [6], the “% cells in cell cycle phase: G1” value worked out at 43%, the “% cells in cell cycle phase: S” value came out at 30%, the “% cells in cell cycle phase: aneuploid” value turned out to be 11% and the “% cells in cell cycle phase: subG1” value is reported as 3.1%. Moreover, under setting [1], the “% cells aneuploid” value is 66% and 98%; the “% cells in cell cycle phase G1” value is 57% and 44%; the “% cells in cell cycle phase G2/M” value was 176% and 163%; the “% cells in cell cycle phase S” value was 106% and 121%. Also, under setting [1], the “% cells in cell cycle phase subG1” value was 178% and 175%. For the same substance, under setting [2], the “% cells in cell cycle phase: G1” value was 39% and 44%; the “% cells in cell cycle phase: G2/M” value is 208% and 205%; the “% cells in cell cycle phase: S” value is 171% and 166%; the “% cells in cell cycle phase: aneuploid” value was 81% and 87%. The “% cells in cell cycle phase: G2/M” value (150 nM, 48 hours) worked out at 28%. Besides, under setting [3], the “% cells in cell cycle phase G1” value came to 108%, the “% cells in cell cycle phase G2/M” value is listed as 93%, the “% cells in cell cycle phase S” value stood at 96% and the “% cells in cell cycle phase aneuploid” value is 162%. Also, under setting [3], the “% cells in cell cycle phase subG1” value is given as 94%. Under setting [7], the “% cells in cell cycle phase: G1” value is on record as 36%, the “% cells in cell cycle phase: S” value turned out to be 36%, the “% cells in cell cycle phase: aneuploid” value is 12% and the “% cells in cell cycle phase: subG1” value stood at 6.3%.

As for “327877 (antisense e[5mC]*eG*e[5mC]*e[5mC]*eA*eA*eT*eA*eT*eT*eT*eA*e[5mC]*eG*eT*eG*e[5mC]*eT*eG*e[5mC]*eT*eA) [compound 327877]”, under setting [1], the “% cells aneuploid” value turned out to be 62%, the “% cells in cell cycle phase G1” value is reported as 107%, the “% cells in cell cycle phase G2/M” value is 159% and the “% cells in cell cycle phase S” value stood at 66%. Under setting [1], the “% cells in cell cycle phase subG1” value turned out to be 154%. Further, under setting [2], the “% cells in cell cycle phase: G1” value is recorded as 59%, the “% cells in cell cycle phase: G2/M” value was found to be 168%, the “% cells in cell cycle phase: S” value is recorded as 152% and the “% cells in cell cycle phase: aneuploid” value was found to be 80%. Besides, under setting [2], the “% cells in cell cycle phase: subG1” value amounted to 755%.

As to “328119 (antisense eA*eA*eT*eA*eA*e[5mC]*eA*e[5mC]*eA*e[5mC]*eA*eT*e[5mC]*e[5mC]*eA*e[5mC]*eT*eT*eT*eA*eA) [compound 328119]”, under setting [1], the “% cells aneuploid” value stood at 83%, the “% cells in cell cycle phase G1” value was determined as 100%, the “% cells in cell cycle phase G2/M” value is recorded as 112% and the “% cells in cell cycle phase S” value came to 94%. For the same substance, the “% cells in cell cycle phase subG1” value under setting [1] came out at 75%. Under setting [2], the “% cells in cell cycle phase: G1” value stood at 75%, the “% cells in cell cycle phase: G2/M” value is 124%, the “% cells in cell cycle phase: S” value turned out to be 145% and the “% cells in cell cycle phase: aneuploid” value was determined as 81%. For the same substance, the “% cells in cell cycle phase: subG1” value under setting [2] came to 767%.
